{"source": "patent US9169279B2", "about": "“Crystallization method and bioavailability” (THAR PHARMACEUTICALS, INC., priority 2009, dated 2015)", "key": {"[1]": {"assay": "Dog PK study: zoledronic acid in serum after IV or oral capsule dosing, enteric or non-enteric coated, with or without excess coformer (LC/MS/MS)", "format": "in vivo, Beagle dogs", "details": "beagle, read-out: Average serum concentration of 5 dogs", "from_the_text": "(§1) This can be attributed to the fact that both animals have historically been used in the safety evaluation and PK screening studies and are recommended by appropriate regulatory agencies. […] Additional tests included ID administration in rats and administration of enteric coated capsules in dogs.\n(§2) USA. Some animals have surgical catheters (jugular vein and intraduodenum) were implanted to the animals prior to the studies. Beagle dogs from Marshall Farms, N.Y., USA, weighing from (9-12 kg) were used in the studies presented herein. Surgical catheters (jugular vein) were implanted prior to the studies.\nThe dose volume of each dog was adjusted based upon the average weight of the dog. • ii. […]\nBlood samples were placed without the use of an anticoagulant and allowed to sit at room temperature for approximately 30 minutes. Samples were then centrifuged at a temperature of 4° C., at a speed of 13,000 rpm, for 5 minutes. Serum was collected and split into two aliquots and stored frozen (−80° C.) until analysis.\nIn this study, capsules of particulate materials (zoledronic:DL-lysine:water complex and excess pure DL-lysine)."}, "[2]": {"assay": "Rat PK study: zoledronic acid in plasma after IV, oral gavage or intraduodenal dosing (LC/MS/MS)", "format": "in vivo", "details": "male, Sprague-Dawley, read-out: Average plasma concentration of 3 rats", "from_the_text": "as §1, §2\nThe dose of each rat was calculated on a per rat basis (not on an average weight of all the rats in the lot). • ii. Oral gavage administration: solid suspensions were administered. The dose of each rat was calculated on a per rat basis (not on an average weight of all the rats in the lot). […] Duodenal cannula administration: solid suspensions were administered. The dose of each rat was calculated on a per rat basis (not on an average weight of all the rats in the lot).\nTwo major groups of animals were selected for the study. • Group 1 consists of rat studies. […] Details of Group 1 Rat Dosing\nPlasma was collected after centrifugation at 13,000 rpm for 5 min at 4° C. and immediately frozen and stored at −60 to −80° C. until analysis."}, "[3]": {"details": "iv, 0.183 mg/kg, Leg 13, 0.183 mg/kg IV, saline solution"}, "[4]": {"details": "po, Leg 19, 61.3 mg with 322.9 mg DL-lysine monohydrate, gelatin capsule, PO"}, "[5]": {"details": "po, Leg 24, 64.0 mg with 374.8 mg L-lysine HCl, gelatin capsule, PO"}, "[6]": {"details": "other: intraduodenal (ID, duodenal cannula), 5 mg/kg"}}, "note": "Where two headings read alike, the source gives them in different places."}
{"smiles": "O=P(O)(O)C(O)(Cn1ccnc1)P(=O)(O)O", "note": "[Zoledronic acid, (1-hydroxy-2-imidazol-1-yl-1-phosphono-ethyl)phosphonic acid]", "values": [{"measurement": "concentration at 20 min", "setting": "[1]; iv, 0.183 mg/kg, Leg 13, 0.183 mg/kg IV, saline solution, 20 min", "result": 746, "unit": "ng/mL"}, {"measurement": "concentration at 25 min", "setting": "[1]; iv, 0.183 mg/kg, Leg 13, 0.183 mg/kg IV, saline solution, 25 min", "result": 629, "unit": "ng/mL"}, {"measurement": "concentration at 0.5 h", "setting": "[1]; [3]", "result": 523, "unit": "ng/mL"}, {"measurement": "concentration at 0.75 h", "setting": "[1]; [3]", "result": 343, "unit": "ng/mL"}, {"measurement": "concentration at 1 h", "setting": "[1]; [3]", "result": 245, "unit": "ng/mL"}, {"measurement": "concentration at 1.25 h", "setting": "[1]; iv, 0.183 mg/kg, Leg 13, 0.183 mg/kg IV, saline solution, 1.25 h", "result": 183, "unit": "ng/mL"}, {"measurement": "concentration at 1.5 h", "setting": "[1]; [3]", "result": 140, "unit": "ng/mL"}, {"measurement": "concentration at 2 h", "setting": "[1]; [3]", "result": 80.9, "unit": "ng/mL"}, {"measurement": "concentration at 4 h", "setting": "[1]; [3]", "result": 23.4, "unit": "ng/mL"}, {"measurement": "concentration at 8 h", "setting": "[1]; [3]", "result": 8.78, "unit": "ng/mL"}, {"measurement": "concentration at 24 h", "setting": "[1]; [3]", "result": 3.84, "unit": "ng/mL"}, {"measurement": "concentration at 0 h", "setting": "[1]; [4]", "result": 0, "unit": "ng/mL"}, {"measurement": "concentration at 5 min", "setting": "[1]; [4]", "result": 34.1, "unit": "ng/mL"}, {"measurement": "concentration at 10 min", "setting": "[1]; [4]", "result": 42.7, "unit": "ng/mL"}, {"measurement": "concentration at 0.25 h", "setting": "[1]; [4]", "result": 220, "unit": "ng/mL"}, {"measurement": "concentration at 0.5 h", "setting": "[1]; [4]", "result": 659, "unit": "ng/mL"}, {"measurement": "concentration at 0.75 h", "setting": "[1]; [4]", "result": 479, "unit": "ng/mL"}, {"measurement": "concentration at 1 h", "setting": "[1]; [4]", "result": 384, "unit": "ng/mL"}, {"measurement": "concentration at 1.5 h", "setting": "[1]; [4]", "result": 210, "unit": "ng/mL"}, {"measurement": "concentration at 2 h", "setting": "[1]; [4]", "result": 136, "unit": "ng/mL"}, {"measurement": "concentration at 4 h", "setting": "[1]; [4]", "result": 34.2, "unit": "ng/mL"}, {"measurement": "concentration at 8 h", "setting": "[1]; [4]", "result": 8.53, "unit": "ng/mL"}, {"measurement": "concentration at 24 h", "setting": "[1]; [4]", "result": 2.07, "unit": "ng/mL"}, {"measurement": "concentration at 0 h", "setting": "[1]; [5]", "result": 0, "unit": "ng/mL"}, {"measurement": "concentration at 5 min", "setting": "[1]; [5]", "result": 0, "unit": "ng/mL"}, {"measurement": "concentration at 10 min", "setting": "[1]; [5]", "result": 1.2, "unit": "ng/mL"}, {"measurement": "concentration at 0.25 h", "setting": "[1]; [5]", "result": 14.1, "unit": "ng/mL"}, {"measurement": "concentration at 0.5 h", "setting": "[1]; [5]", "result": 172, "unit": "ng/mL"}, {"measurement": "concentration at 0.75 h", "setting": "[1]; [5]", "result": 340, "unit": "ng/mL"}, {"measurement": "concentration at 1 h", "setting": "[1]; [5]", "result": 283, "unit": "ng/mL"}, {"measurement": "concentration at 1.5 h", "setting": "[1]; [5]", "result": 163, "unit": "ng/mL"}, {"measurement": "concentration at 2 h", "setting": "[1]; [5]", "result": 100, "unit": "ng/mL"}, {"measurement": "concentration at 4 h", "setting": "[1]; [5]", "result": 26.3, "unit": "ng/mL"}, {"measurement": "concentration at 8 h", "setting": "[1]; [5]", "result": 4.56, "unit": "ng/mL"}, {"measurement": "concentration at 24 h", "setting": "[1]; [5]", "result": 0.89, "unit": "ng/mL"}, {"measurement": "concentration at 0.083333 hour", "setting": "[2]; iv, 0.5 mg/kg", "result": 3250, "unit": "ng/mL"}, {"measurement": "concentration at 0.25 hour", "setting": "[2]; iv, 0.5 mg/kg", "result": 1950, "unit": "ng/mL"}, {"measurement": "concentration at 0.5 hour", "setting": "[2]; iv, 0.5 mg/kg", "result": 1130, "unit": "ng/mL"}, {"measurement": "concentration at 1 hour", "setting": "[2]; iv, 0.5 mg/kg", "result": 404, "unit": "ng/mL"}, {"measurement": "concentration at 2 hour", "setting": "[2]; iv, 0.5 mg/kg", "result": 113, "unit": "ng/mL"}, {"measurement": "concentration at 4 hour", "setting": "[2]; iv, 0.5 mg/kg", "result": 30.5, "unit": "ng/mL"}, {"measurement": "concentration at 8 hour", "setting": "[2]; iv, 0.5 mg/kg", "result": 10.7, "unit": "ng/mL"}, {"measurement": "concentration at 24 hour", "setting": "[2]; iv, 0.5 mg/kg", "result": 2.98, "unit": "ng/mL"}, {"measurement": "concentration at 0.25 hour", "setting": "[2]; [6]", "result": 146, "unit": "ng/mL"}, {"measurement": "concentration at 0.5 hour", "setting": "[2]; [6]", "result": 110, "unit": "ng/mL"}, {"measurement": "concentration at 1 hour", "setting": "[2]; [6]", "result": 47.4, "unit": "ng/mL"}, {"measurement": "concentration at 2 hour", "setting": "[2]; [6]", "result": 12.9, "unit": "ng/mL"}, {"measurement": "concentration at 4 hour", "setting": "[2]; [6]", "result": 3.85, "unit": "ng/mL"}, {"measurement": "concentration at 8 hour", "setting": "[2]; [6]", "result": 0.97, "unit": "ng/mL"}, {"measurement": "concentration at 24 hour", "setting": "[2]; [6]", "result": 0, "unit": "ng/mL"}, {"measurement": "concentration at 0.25 hour", "setting": "[2]; po, 5 mg/kg", "result": 330, "unit": "ng/mL"}, {"measurement": "concentration at 0.5 hour", "setting": "[2]; po, 5 mg/kg", "result": 267, "unit": "ng/mL"}, {"measurement": "concentration at 1 hour", "setting": "[2]; po, 5 mg/kg", "result": 139, "unit": "ng/mL"}, {"measurement": "concentration at 2 hour", "setting": "[2]; po, 5 mg/kg", "result": 47.7, "unit": "ng/mL"}, {"measurement": "concentration at 4 hour", "setting": "[2]; po, 5 mg/kg", "result": 11.8, "unit": "ng/mL"}, {"measurement": "concentration at 8 hour", "setting": "[2]; po, 5 mg/kg", "result": 2, "unit": "ng/mL"}, {"measurement": "concentration at 24 hour", "setting": "[2]; po, 5 mg/kg", "result": 0, "unit": "ng/mL"}]}
